Results from patent US7361659B2, “Pyrrazolo-pyrimidine derivatives” (Hoffmann-La Roche Inc., priority 2005, dated 2008).

| Structure (SMILES) | melting point [°C] |
| --- | --- |
| Cc1nc(NC(=O)c2cnn3c(C(F)(F)F)cc(-c4ccc(C(F)(F)F)c(Cl)c4)nc23)sc1S(=O)(=O)NC(C)(C)CO [Example 30, 5-(3-Chloro-4-trifluoromethyl-phenyl)-7-trifluoromethyl-pyrazolo[1,5-a]pyrimidine-3-carboxylic acid [5-(2-hydroxy-1,1-dimethyl-ethylsulfamoyl)-4-methyl-thiazol-2-yl]-amide] | 274 |
| Cc1nc(NC(=O)c2cnn3c(C(F)(F)F)cc(-c4ccc(C(F)(F)F)c(OCC(F)(F)F)c4)nc23)sc1S(=O)(=O)NC(C)(C)CO [Example 32, 5-[3-(2,2,2-Trifluoro-ethoxy)-4-trifluoromethyl-phenyl]-7-trifluoromethyl-pyrazolo[1,5-a]pyrimidine-3-carboxylic acid [5-(2-hydroxy-1,1-dimethyl-ethylsulfamoyl)-4-methyl-thiazol-2-yl]-amide] | 275 |
| Cc1cc(-c2cc(C(F)F)n3ncc(C(=O)Nc4nc(C)c(S(N)(=O)=O)s4)c3n2)ccc1C(F)(F)F [Example 33, 7-Difluoromethyl-5-(3-methyl-4-trifluoromethyl-phenyl)-pyrazolo[1,5-a]pyrimidine-3-carboxylic acid (4-methyl-5-sulfamoyl-thiazol-2-yl)-amide] | 307 |
| O=C(Nc1cc(S(=O)(=O)N(CCO)CCO)sc1Cl)c1cnn2c(C(F)F)cc(-c3ccc(C(F)(F)F)cc3)nc12 [Example 34, 7-Difluoromethyl-5-(4-trifluoromethyl-phenyl)-pyrazolo[1,5-a]pyrimidine-3-carboxylic acid {5-[bis-(2-hydroxy-ethyl)-sulfamoyl]-2-chloro-thiophen-3-yl}-amide] | 216 |
| O=C(Nc1cc(S(=O)(=O)NCCO)sc1Cl)c1cnn2c(C(F)(F)F)cc(-c3ccc(C(F)(F)F)cc3)nc12 [Example 36, 7-Trifluoromethyl-5-(4-trifluoromethyl-phenyl)-pyrazolo[1,5-a]pyrimidine-3-carboxylic acid [2-chloro-5-(2-hydroxy-ethylsulfamoyl)-thiophen-3-yl]-amide] | 191 |
| CC(CO)(CO)NS(=O)(=O)c1cc(NC(=O)c2cnn3c(C(F)F)cc(-c4ccc(C(F)(F)F)cc4)nc23)c(Cl)s1 [Example 37, 7-Difluoromethyl-5-(4-trifluoromethyl-phenyl)-pyrazolo[1,5-a]pyrimidine-3-carboxylic acid [2-chloro-5-(2-hydroxy-1-hydroxymethyl-1-methyl-ethylsulfamoyl)-thiophen-3-yl]-amide] | 237 |
| CC(CO)(CO)NS(=O)(=O)c1cc(NC(=O)c2cnn3c(C(F)(F)F)cc(-c4ccc(C(F)(F)F)cc4)nc23)c(Cl)s1 [Example 38, 7-Trifluoromethyl-5-(4-trifluoromethyl-phenyl)-pyrazolo[1,5-a]pyrimidine-3-carboxylic acid [2-chloro-5-(2-hydroxy-1-hydroxymethyl-1-methyl-ethylsulfamoyl)-thiophen-3-yl]-amide] | 201 |
| Cc1nc(NC(=O)c2cnn3c(C(F)F)cc(-c4ccc(C(F)(F)F)cc4)nc23)sc1S(=O)(=O)N(CCO)CCO [Example 40, 7-Difluoromethyl-5-(4-trifluoromethyl-phenyl)-pyrazolo[1,5-a]pyrimidine-3-carboxylic acid {5-[bis-(2-hydroxy-ethyl)-sulfamoyl]-4-methyl-thiazol-2-yl}-amide] | 191 |
| Cc1nc(NC(=O)c2cnn3c(C(F)(F)F)cc(-c4ccc(C(F)(F)F)cc4)nc23)sc1S(=O)(=O)NC(C)(CO)CO [Example 42, 7-Trifluoromethyl-5-(4-trifluoromethyl-phenyl)-pyrazolo[1,5-a]pyrimidine-3-carboxylic acid [5-(2-hydroxy-1-hydroxymethyl-1-methyl-ethylsulfamoyl)-4-methyl-thiazol-2-yl]-amide] | 250 |
| Cc1nc(NC(=O)c2cnn3c(C(F)F)cc(-c4ccc(C(F)(F)F)cc4)nc23)sc1S(=O)(=O)NC(C)(CO)CO [Example 43, 7-Difluoromethyl-5-(4-trifluoromethyl-phenyl)-pyrazolo[1,5-a]pyrimidine-3-carboxylic acid [5-(2-hydroxy-1-hydroxymethyl-1-methyl-ethylsulfamoyl)-4-methyl-thiazol-2-yl]-amide] | 248 |
| O=C(Nc1cc(S(=O)(=O)NCCO)sc1Cl)c1cnn2c(C(F)F)cc(-c3ccc(C(F)(F)F)cc3)nc12 [Example 44, 7-Difluoromethyl-5-(4-trifluoromethyl-phenyl)-pyrazolo[1,5-a]pyrimidine-3-carboxylic acid [2-chloro-5-(2-hydroxy-ethylsulfamoyl)-thiophen-3-yl]-amide] | 209 |
| Cc1nc(NC(=O)c2cnn3c(C(F)(F)F)cc(-c4ccc(C(F)(F)F)cc4)nc23)sc1S(=O)(=O)NCCO [Example 46, 7-Trifluoromethyl-5-(4-trifluoromethyl-phenyl)-pyrazolo[1,5-a]pyrimidine-3-carboxylic acid [5-(2-hydroxy-ethylsulfamoyl)-4-methyl-thiazol-2-yl]-amide] | 166 |

Now from value to compound:

| melting point [°C] | Structure (SMILES) |
| --- | --- |
| 265 | Cc1nc(NC(=O)c2cnn3c(C(F)(F)F)cc(-c4ccc(Cl)c(Cl)c4)nc23)sc1S(=O)(=O)NC(C)(C)CO [Example 31, 5-(3,4-Dichloro-phenyl)-7-trifluoromethyl-pyrazolo[1,5-a]pyrimidine-3-carboxylic acid [5-(2-hydroxy-1,1-dimethyl-ethylsulfamoyl)-4-methyl-thiazol-2-yl]-amide] |
| 271 | Cc1cc(-c2cc(C(F)F)n3ncc(C(=O)Nc4nc(C)c(S(=O)(=O)NC(C)(C)CO)s4)c3n2)ccc1C(F)(F)F [Example 39, 7-Difluoromethyl-5-(3-methyl-4-trifluoromethyl-phenyl)-pyrazolo[1,5-a]pyrimidine-3-carboxylic acid [5-(2-hydroxy-1,1-dimethyl-ethylsulfamoyl)-4-methyl-thiazol-2-yl]-amide] |
| 214 | Cc1nc(NC(=O)c2cnn3c(C(F)(F)F)cc(-c4ccc(C(F)(F)F)cc4)nc23)sc1S(=O)(=O)N(CCO)CCO [Example 41, 7-Trifluoromethyl-5-(4-trifluoromethyl-phenyl)-pyrazolo[1,5-a]pyrimidine-3-carboxylic acid {5-[bis-(2-hydroxy-ethyl)-sulfamoyl]-4-methyl-thiazol-2-yl}-amide] |
| 134 | Cc1nc(NC(=O)c2cnn3c(C(F)F)cc(-c4ccc(C(F)(F)F)cc4)nc23)sc1S(=O)(=O)NCCO [Example 45, 7-Difluoromethyl-5-(4-trifluoromethyl-phenyl)-pyrazolo[1,5-a]pyrimidine-3-carboxylic acid [5-(2-hydroxy-ethylsulfamoyl)-4-methyl-thiazol-2-yl]-amide] |
| 297 | Cc1sc(S(N)(=O)=O)cc1NC(=O)c1cnn2c(C(F)(F)F)cc(-c3ccc(C(F)(F)F)cc3)nc12 [Example 47, 7-Trifluoromethyl-5-(4-trifluoromethyl-phenyl)-pyrazolo[1,5-a]pyrimidine-3-carboxylic acid (2-methyl-5-sulfamoyl-thiophen-3-yl)-amide] |
| 313 | Cc1sc(S(N)(=O)=O)cc1NC(=O)c1cnn2c(C(F)F)cc(-c3ccc(C(F)(F)F)cc3)nc12 [Example 48, 7-Difluoromethyl-5-(4-trifluoromethyl-phenyl)-pyrazolo[1,5-a]pyrimidine-3-carboxylic acid (2-methyl-5-sulfamoyl-thiophen-3-yl)-amide] |
